Assay results published in US10668040B2, “Treatment of urea cycle disorders in neonates and infants” (Horizon Therapeutics, LLC, priority 2017, dated 2020).

Tests used:
[1] = Pharmacokinetics of HPN-100 and NaPBA, study HPN-100-005; assay type: in vivo, human; conditions: HPN-100-005 (N = 11)
Excerpt: The pharmacokinetics of the short term studies can be summarized as follows. Mean exposure levels of HPN-100 metabolites PBA, PAA, and PAGN after doses of HPN-100 and NaPBA with meals (TID) in pediatric (29 days to 17 years of age) UCD patients in HPN-100-005 and HPN-100-012 studies are summarized below. The mean exposure to PBA, the parent metabolite, and mean exposure to PAGN, the terminal metabolite, show no systematic variation across age groups, while PAA exposure tended to decrease with increasing age, a finding consistent with those from population PK modeling which indicate that the rate of clearance/metabolism of PAA varies directly with body size. While systemic metabolite exposure, assessed as peak plasma concentration (Cmax) or AUC, is generally similar for HPN-100 and NaPBA, the minimum concentration (Cmin-ss) was higher—and/or percent-fluctuation less—for plasma PAGN, a finding consistent with slower gastrointestinal absorption of PBA when administered orally as HPN-100.

[2] = test system: UCD patients; experiment: HPN-100-009 (Example 2): treatment-emergent, serious and non-serious adverse events; assay type: in vivo, human; conditions: Age 2 Months to <2 Years
Excerpt: Number of Subjects with Treatment-Emergent Adverse Events (TEAEs), Serious TEAEs, Deaths, and Discontinuations Due to TEAEs.
End point description. An adverse event (AE) was any untoward medical occurrence, whether or not the event is considered related to the study drug. […] TEAEs were defined as AEs with an onset date on or after the first dose of study medication until study discontinuation. The Investigator assessed the causal relationship of each TEAE to the study drug as not related, possibly related, or probably related. Safety population: all enrolled subjects who received any amount of study medication. End point timeframe: up to 370 days.
Adverse Events Information.
Timeframe for reporting adverse events: From first dose of study treatment up to 370 days (data cutoff); median (full range) duration of treatment was 4.68 (0.2 to 10.9) months. Adverse event reporting additional description: TEAEs (defined as AEs with an onset date on or after the first dose of study medication until study discontinuation) are presented.

[3] = HPN-100-009 (Example 2): plasma PBA, PAA, PAGN PK on first full day of RAVICTI dosing; assay type: in vivo, human; conditions: Age 2 Months to <2 Years, mean (SD)
Excerpt: Plasma Phenylbutyrate/Phenylbutyric Acid (PB A) 1) Maximum Plasma Concentration (Cmax); 2) Minimum Plasma Concentration (Cmin); 3) Area Under the Curve from Time Zero to the Time of Last Quantifiable Concentration (AUC[0-Last]); and 4) Time to Cmax (Tmax) on the First Full Day of RAVICTI® Dosing.
(§1) End point description. Pharmacokinetic (PK) Evaluable Population: all subjects from the safety population with individual concentration-time profiles that allow computation of meaningful PK parameter values. End point timeframe: Hour 0 and between 4 and 6 hours, 8 hours, and between 12 and 24 hours after the first dose of the day on Day 1 for stable subjects and on Day 2 for subjects in HAC.
Plasma Phenylacetate/Phenylacetic Acid (PAA) 1) Maximum Plasma Concentration (Cmax); 2) Minimum Plasma Concentration (Cmin); 3) Area Under the Curve from Time Zero to the Time of Last Quantifiable Concentration (AUC[0-Last]); and 4) Time to Cmax (Tmax) on the First Full Day of RAVICTI® Dosing.
as §1, with “PK” for “Pharmacokinetic (PK)”
Plasma Phenylacetylglutamine (PAGN) 1) Maximum Plasma Concentration (Cmax); 2) Minimum Plasma Concentration (Cmin); 3) Area Under the Curve from Time Zero to the Time of Last Quantifiable Concentration (AUC[0-Last]); and 4) Time to Cmax (Tmax) on the First Full Day of RAVICTI® Dosing.

[4] = test system: UCD patients; conditions: 4 patients aged 2 months to 2 years; cited from earlier work

O=C(CCCc1ccccc1)OCC(COC(=O)CCCc1ccccc1)OC(=O)CCCc1ccccc1 [RAVICTI, benzenebutanoic acid, 1′,1″-(1,2,3-propanetriyl) ester]
Plasma PAA % Fluctuation ([1]; mean (CV %)): 3483 (51.5) %
Plasma PAA AUC0-24 ([1]; mean (CV %)): 964 (63.6) μg · h/mL
Plasma PAA CLss/F ([1]; mean (CV %)): 15082 (101.4) mL/min
Plasma PAA Cmax-ss ([1]; mean (CV %)): 90.5 (69.1) μg/mL
Plasma PAA Cmin-ss ([1]; mean (CV %)): 2.99 (122.1) μg/mL
Plasma PAGN % Fluctuation ([1]; mean (CV %)): 1001 (84.5) %
Plasma PAGN AUC0-24 ([1]; mean (CV %)): 1378 (40.2) μg · h/mL
Plasma PAGN CLss/F ([1]; mean (CV %)): 14237 (36.8) mL/min
Plasma PAGN Cmax-ss ([1]; mean (CV %)): 105 (33.5) μg/mL
Plasma PAGN Cmin-ss ([1]; mean (CV %)): 13.1 (64.9) μg/mL
Plasma PBA % Fluctuation ([1]; mean (CV %)): 5690 (56.8) %
Plasma PBA AUC0-24 ([1]; mean (CV %)): 631 (44.9) μg · h/mL
Plasma PBA CLss/F ([1]; mean (CV %)): 20545 (47.2) mL/min
Plasma PBA Cmax-ss ([1]; mean (CV %)): 95.6 (42.0) μg/mL
Plasma PBA Cmin-ss ([1]; mean (CV %)): 1.50 (99.8) μg/mL
U-PAGN Ae ([1]; mean (CV %)): 12501037 (56.9) μg
U-PAGN Ae0-12 ([1]; mean (CV %)): 5611719 (74.7) μg
U-PAGN Ae12-24 ([1]; mean (CV %)): 6889318 (50.1) μg
U-PAGN Fe0-12 ([1]; mean (CV %)): 28.9 (42.1) %
U-PAGN Fe12-24 ([1]; mean (CV %)): 37.4 (32.3) %
U-PAGN Fe % dose ([1]; mean (CV %)): 66.4 (23.9) %
Plasma PAA Tmax-ss ([1]; median): 11.92 h
Plasma PAGN Tmax-ss ([1]; median): 12.00 h
Plasma PBA Tmax-ss ([1]; median): 12.00 h
Non-serious AE Anaemia: Occurrences (All) [2]: 1
Non-serious AE Apnoeic Attack: Occurrences (All) [2]: 1
Non-serious AE Cough: Occurrences (All) [2]: 1
Non-serious AE Deep Vein Thrombosis: Occurrences (All) [2]: 1
Non-serious AE Diarrhoea: Occurrences (All) [2]: 1
Non-serious AE Gross Motor Delay: Occurrences (All) [2]: 1
Non-serious AE Hypophagia: Occurrences (All) [2]: 1
Non-serious AE Infections (Gastroenteritis): Occurrences (All) [2]: 1
Non-serious AE Infections (Nasopharyngitis): Occurrences (All) [2]: 1
Non-serious AE Infections (Upper Respiratory Tract): Occurrences (All) [2]: 4
Non-serious AE Infections (Urinary Tract): Occurrences (All) [2]: 1
Non-serious AE Infections (Viral): Occurrences (All) [2]: 1
Non-serious AE Metabolic Acidosis: Occurrences (All) [2]: 1
Non-serious AE Nail Ridging: Occurrences (All) [2]: 1
Non-serious AE Rash: Occurrences (All) [2]: 2
Non-serious AE Rhinorrhoea: Occurrences (All) [2]: 1
Non-serious AE Stoma Site Reaction: Occurrences (All) [2]: 1
Non-serious AE Teething: Occurrences (All) [2]: 1
Non-serious AE Tibia Fracture: Occurrences (All) [2]: 1
Non-serious AE Vesicoureteric Reflux: Occurrences (All) [2]: 1
Non-serious AE Vomiting: Occurrences (All) [2]: 3
Number of Deaths (All Causes) [2]: 1
Serious AE Apnoeic Attack: Deaths Causally Related to Treatment/All [2]: 0/0
Serious AE Apnoeic Attack: Occurrences Causally Related to Treatment/All [2]: 0/2
Serious AE Hyperammonaemia: Deaths Causally Related to Treatment/All [2]: 0/0
Serious AE Hyperammonaemia: Occurrences Causally Related to Treatment/All [2]: 0/8
Serious AE Infections (Croup): Deaths Causally Related to Treatment/All [2]: 0/0
Serious AE Infections (Croup): Occurrences Causally Related to Treatment/All [2]: 0/1
Serious AE Infections (Gastroenteritis): Deaths Causally Related to Treatment/All [2]: 0/0
Serious AE Infections (Gastroenteritis): Occurrences Causally Related to Treatment/All [2]: 0/1
Serious AE Infections (Urinary Tract): Deaths Causally Related to Treatment/All [2]: 0/0
Serious AE Infections (Urinary Tract): Occurrences Causally Related to Treatment/All [2]: 0/1
Serious AE Infections (Viral): Deaths Causally Related to Treatment/All [2]: 0/0
Serious AE Infections (Viral): Occurrences Causally Related to Treatment/All [2]: 0/1
Serious AE Pneumatosis: Deaths Causally Related to Treatment/All [2]: 0/1
Serious AE Pneumatosis: Occurrences Causally Related to Treatment/All [2]: 0/1
Subjects with fatal outcome TEAE ([2]; 10 analyzed, up to 370 days): 1 Subjects
Subjects with ≥1 Related TEAE ([2]; 10 analyzed, up to 370 days): 4 Subjects
Subjects with ≥1 Serious Related TEAE ([2]; 10 analyzed, up to 370 days): 0 Subjects
Subjects with ≥1 Serious TEAE ([2]; 10 analyzed, up to 370 days): 6 Subjects
Subjects with ≥1 TEAE ([2]; 10 analyzed, up to 370 days): 10 Subjects
Subjects with ≥1 TEAE Leading to Study Discontinuation ([2]; 10 analyzed, up to 370 days): 1 Subjects
Plasma PAA AUC[0-last] [3]: 246.126 (±238.547) (μg * hr/mL)
Plasma PAA Cmax [3]: 36.52 (±31.784) (μg/mL)
Plasma PAA Cmin [3]: 4.197 (±6.434) (μg/mL)
Plasma PAA Tmax [3]: 7.422 (±7.351) (hrs)
Plasma PAGN AUC[0-last] [3]: 583.835 (±285.241) (μg * hr/mL)
Plasma PAGN Cmax [3]: 62.45 (±27.281) (μg/mL)
Plasma PAGN Cmin [3]: 20.62 (±14.529) (μg/mL)
Plasma PAGN Tmax [3]: 6.573 (±7.181) (hrs)
Plasma PBA AUC[0-last] [3]: 280.936 (±293.553) (μg * hr/mL)
Plasma PBA Cmax [3]: 42.44 (±36.715) (μg/mL)
Plasma PBA Cmin [3]: 1.697 (±2.254) (μg/mL)
Plasma PBA Tmax [3]: 8.383 (±4.564) (hrs)
PAA exposure, 24-hour area under the curve, vs NaPBA [4]: very similar
mean ammonia exposure, 24-hour area under the curve, vs NaPBA [4]: non-inferior
